Laboratory results from patent US9006487B2, “Amine-containing lipids and uses thereof” (Massachusetts Institute of Technology, priority 2005, dated 2015).

Test system: cos-7 cells
Assay: DNA transfection: luciferase expression relative to Lipofectamine 2000
Format: cell-based
Details: 300 ng Luciferase DNA per well, luciferase assay after 48 hours
Summary of the method: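 Lipid/DNA complexes, 300 ng luciferase DNA per well at 2.5-25 w/w lipid:DNA, were formed in sodium acetate/Optimem and added to overnight-seeded cos-7 cells. Luciferase was measured by Bright-Glo luminescence after 48 hours and quantified against an enzyme standard curve. Values are expressed as % of Lipofectamine 2000 at 2.5 w/w.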

| Structure (SMILES) | Luciferase expression as a percentage of that achieved using Lipofectamine 2000 (lipid/DNA 2.5 w/w) [%] | Luciferase expression as a percentage of that achieved using Lipofectamine 2000 (lipid/DNA 5 w/w) [%] | Luciferase expression as a percentage of that achieved using Lipofectamine 2000 (lipid/DNA 10 w/w) [%] | Luciferase expression as a percentage of that achieved using Lipofectamine 2000 (lipid/DNA 15 w/w) [%] | Luciferase expression as a percentage of that achieved using Lipofectamine 2000 (lipid/DNA 20 w/w) [%] | Luciferase expression as a percentage of that achieved using Lipofectamine 2000 (lipid/DNA 25 w/w) [%] |
| --- | --- | --- | --- | --- | --- | --- |
| CCCCCCCCCCCCOC(=O)CCN(CCC(=O)OCCCCCCCCCCCC)CCC1CCCN1C (centres unmarked) [LD77] | 0.1 | 0.1 | 6.9 | 11.1 | 6.4 | 2.9 |
| CCCCCCCCCCOC(=O)CCN(CCC(=O)OCCCCCCCCCC)CC(OC)OC [LB13] | 0.1 | 0.1 | 0.1 | 0.1 | 0.1 | 0.1 |
| CCCCCCCCCCOC(=O)CCN(CCC(=O)OCCCCCCCCCC)C1CCC(O)CC1 (centres unmarked) [LB38] | 0.7 | 0.8 | 0.7 | 0.8 | 0.7 | 0.8 |
| CCCCCCCCCCCCCCOC(=O)CCN(CCC(=O)OCCCCCCCCCCCCCC)CC1COC(C)(C)O1 (centres unmarked) [LF7] | 0.1 | 0.1 | 0.0 | 0.0 | 0.1 | 0.1 |
| CCCCCCCCCCCCOC(=O)CC[N+](C)(CCCCO)CCC(=O)OCCCCCCCCCCCC.[I-] [QD28] |  |  | 0.1 | 0.1 |  |  |
| CCCCCCCCCCCCOC(=O)CCN(CCC(=O)OCCCCCCCCCCCC)CCN(CC)CC [LD75] | 0.1 | 0.1 | 0.1 | 0.2 | 0.2 | 0.2 |
| CCCCCCCCCCCCCCCCCCOC(=O)CCN(CCOC)CCC(=O)OCCCCCCCCCCCCCCCCCC [LH10] | 0.0 | 0.0 | 0.0 | 0.0 | 0.0 | 0.0 |
| CCCCCCCCCCCCCCOC(=O)CCN(CCCO)CCC(=O)OCCCCCCCCCCCCCC [LF20] | 0.2 | 0.4 | 0.3 | 0.2 | 0.1 | 0.1 |
| CCCCCCCCCCOC(=O)CCN(CCC(=O)OCCCCCCCCCC)CCC1OCCO1 [LB6] | 0.1 | 0.1 | 0.1 | 0.1 | 0.1 | 0.1 |
| CCCCCCCCCCCCOC(=O)CCN(CCC(=O)OCCCCCCCCCCCC)CCc1c[nH]cn1 [LD94] | 1.5 | 5.9 | 2.0 | 8.5 | 9.2 | 7.3 |
| CCCCCCCCCCOC(=O)CCN(CCC(=O)OCCCCCCCCCC)C(CC)(CO)CO [LB34] | 0.1 | 0.1 | 0.2 | 0.4 | 0.1 | 0.1 |
| CCCCCCCCCCCCCCOC(=O)CCN(CCC(=O)OCCCCCCCCCCCCCC)CC(OC)OC [LF13] | 0.1 | 0.1 | 0.0 | 0.0 | 0.1 | 0.1 |
| CCCCCCCCCCCCCCCOC(=O)CCN(CCOC)CCC(=O)OCCCCCCCCCCCCCCC [LG10] | 0.0 | 0.0 | 0.0 | 0.0 | 0.0 | 0.0 |
| CCCCCCCCCCCCCCOC(=O)CCN(CCCN(CCO)CCO)CCC(=O)OCCCCCCCCCCCCCC [LF87] | 19.4 | 11.3 | 30.2 | 13.3 | 11.0 | 10.0 |
| CCCCCCCCCCCCCCOC(=O)CCN(CCCCCO)CCC(=O)OCCCCCCCCCCCCCC [LF32] | 0.1 | 0.1 | 0.2 | 0.1 | 0.4 | 0.4 |
| CCCCCCCCCCCCOC(=O)CCN(CCCN(C)C)CCC(=O)OCCCCCCCCCCCC [LD80] | 0.1 | 0.1 | 3.7 | 6.5 | 7.1 | 2.1 |
| CCCCCCCCCCCCCCCCCCOC(=O)CCN(CCCOC)CCC(=O)OCCCCCCCCCCCCCCCCCC [LH1] | 0.0 | 0.0 | 0.0 | 0.0 | 0.0 | 0.0 |
